From patent US20250057823A1, “COMPOSITION FOR IMPROVING CARDIAC FUNCTION” (Kyoto University, priority 2021, published 2025)
Structures can show the parent of a compound that is named as a salt.

Key:
Type in all cases: in vivo
[1] = test system: mouse models of pressure overload-induced cardiac hypertrophy/heart failure (TAC); experiment: Mouse models of pressure overload-induced (TAC) heart failure during acute phase; conditions: TAC mice, 50 mg/kg i.p. immediately after TAC, three hours later
Method: (§1) Transverse aortic constriction (TAC) was performed as described previously [Date, et al. (2002) The antioxidant N-2-mercaptopropionyl glycine attenuates left ventricular hypertrophy in in vivo murine pressure-overload model. J Am Coll Cardiol 39: 907-912.]. Briefly, 8- to 10-week-old mice were anesthetized with anesthetic (0.3 mg/kg of medetomidine, 4.0 mg/kg of midazolam, and 5.0 mg/kg of butorphanol) administered intraperitoneally, and the proximal portion of the sternum was cut open to visualize the aorta. A 7-0 silk suture was placed around the aortic arch distal to the brachiocephalic artery. The suture was tightened firmly around a blunt 26-gauge needle placed adjacent to the aorta. The needle was then removed, and the chest and overlying skin were closed. Sham-operated mice underwent an identical surgical procedure without ligation of the aortic arch. At the end of the operation, 0.3 mg/kg of atipamezole was administered subcutaneously to reverse medetomidine. FIG. 1 is a schematic diagram of TAC.
To extract total RNA, tissue samples were homogenized using a polytron homogenizer in 1 mL of TriPure reagent (Sigma-Aldrich), and the total RNA was extracted in accordance with the manufacture's protocol. Total RNA extracted from cells was also isolated using 1 mL of TriPure reagent. The quantity and quality of total RNA were determined using a NanoDrop™2000 spectrophotometer (Thermo Scientific).
Total RNA was reverse transcribed by blend primer of random hexamers and oligo-dT 3:1 (volume/volume) using Verso™ cDNA Synthesis Kit (Thermo Fisher Scientific, AB1453A) in accordance with the manufacturer's protocol, and the cDNA was analyzed by qRT-PCR. qRT-PCR measurements used THUNDERBIRD SYBR qPCR Mix (TOYOBO) in accordance with the manufacturer's instructions. Expression levels of messenger RNAs (mRNAs) were normalized by the indicated housekeeping genes, and calculated by the 2^−ΔΔCt method. All analyses were performed using a StepOnePlus real-time PCR system and StepOne Software v2.3 (Applied Biosystems, Inc). […]

[2] = test system: mouse models of pressure overload-induced cardiac hypertrophy/heart failure (TAC); experiment: Mouse models of TAC heart failure during cardiac hypertrophic phase
Method: as §1
(§2) Total RNA was reverse transcribed by blend primer of random hexamers and oligo-dT 3:1 (volume/volume) using Verso™ cDNA Synthesis Kit (Thermo Fisher Scientific, AB1453A) in accordance with the manufacturer's protocol, and the cDNA was analyzed by qRT-PCR. qRT-PCR measurements used THUNDERBIRD SYBR qPCR Mix (TOYOBO) in accordance with the manufacturer's instructions. Expression levels of messenger RNAs (mRNAs) were normalized by the indicated housekeeping genes, and calculated by the 2^−ΔΔCt method. All analyses were performed using a StepOnePlus real-time PCR system and StepOne Software v2.3 (Applied Biosystems, Inc).
Wheat Germ Agglutinin (WGA) Staining and the Quantification Paraffin-embedded ventricular short-axis sections were stained with FITC-conjugated lectin (Sigma, L4895). Images were captured by Axio Observer7 (Zeiss). Cardiomyocyte cross-sectional area measurement was performed using ImageJ64 software (NIH). Approximately 150-200 cells were measured per heart, and averages were used for the analysis.
(§3) To analyze the cardiac function, we used Vevo® 2100 (VISUALSONICS) at the indicated time points after TAC operation. Mice were kept under inhalation anesthesia with 2.5% isoflurane. LV function was measured in M mode of the parasternal short-axis view.
(§4) Mouse models of pressure overload-induced cardiac hypertrophy/heart failure were prepared by TAC and were injected intraperitoneally with 50 mg/kg of KUS121 daily for 2 weeks starting immediately after TAC. Sham-operated mice and control mice were injected with 5% glucose. Two weeks after TAC, echocardiography was performed, then the mice were sacrificed, the body weight and heart weight were measured, and heart samples were collected.

[3] = test system: mouse models of pressure overload-induced cardiac hypertrophy/heart failure (TAC); experiment: Mouse models of TAC heart failure during heart failure phase; conditions: 50 mg/kg i.p. daily for 3 weeks starting 5 weeks after TAC
Method: as §1, §2
Tissues were fixed with 4% paraformaldehyde, dehydrated with 70% ethanol, and then embedded in paraffin. Deparaffinized sections were stained with hematoxylin solution for cell nucleus, and stained with eosin solution for cytoplasm. Images were captured by Axio Observer7 (Zeiss). Cardiomyocyte cross-sectional area measurement was performed using ImageJ64 software (NIH). Approximately 150-200 cells were measured per heart, and averages were used for the analysis.
As described above, deparaffinized sections were stained with hematoxylin solution for cell nucleus, Masson solution for cytoplasm, and aniline blue for collagen fiber. Images were captured by a microscopy (BZ-9000, Keyence). Aniline blue-stained regions were measured using ImageJ64 software (NIH).
as §3
as §4, with “for 3” for “for 2”, “starting 5 weeks” for “starting immediately”, “glucose. Echocardiography was performed 5 weeks and 8 weeks after TAC. Eight” for “glucose. Two”, “TAC,” for “TAC, echocardiography was performed, then”

mouse models of HFpEF = experiment: Mouse models of HFpEF (high-fat diet + L-NAME), acute effect; conditions: high-fat diet+L-NAME group
Method: Mouse models of HFpEF were prepared by high-fat diet and administration of L-NG-nitroarginine methyl ester (L-NAME) to test the effect of KUS121 on HFpEF. ICR mice were fed with normal diet and ultrapure water or high-fat diet and 0.5 g/L of L-NAME for 5 weeks.
Then, acute effect of KUS121 on HFpEF was tested. ICR mice fed with normal diet or high-fat diet+0.5 g/L of L-NAME were injected intraperitonially with 50 mg/kg of KUS121 and cardiac function was assessed by echocardiography before and 10 minutes after the injection. No difference in echocardiography was observed between the normal diet group and the high-fat diet+L-NAME group before injection of 5% glucose or KUS121 (FIG. 26). EF was not changed after […] in the control group and the high-fat diet+L-NAME group (FIG. 26, left and middle), but was increased after KUS121 injection in the high-fat diet+L-NAME group (FIG. 26, right).
Diastolic function was also tested. Global longitudinal strain (GLS), E/A, and E/E′ were assessed for evaluating cardiac diastolic function. Mice from the high-fat diet+L-NAME group had diastolic dysfunction as indicated by high levels of GLS, E/A, and E/E′ before KUS121 administration, the degree of which varied among the individual animals (FIG. 27).
To assess exercise tolerance, treadmill test (TMT) was performed.

[4] = TAC mice, 50 mg/kg i.p. daily for 2 weeks starting immediately after TAC
[5] = echocardiography two weeks after TAC, 50 mg/kg i.p. daily
[6] = heart tissue, qRT-PCR, 50 mg/kg i.p. daily for 2 weeks after TAC
[7] = 50 mg/kg i.p., before and after administration

Cc1cc(F)ccc1-c1ccc(/N=N/c2cc(S(=O)(=O)O)c3ccccc3c2N)cn1 [KUS121, 4-amino-3-[6-(4-fluoro-2-methylphenyl)pyridine-3-ylazo]naphthalene-1-sulfonic acid sodium salt]
ratio of heart weight to body weight [1]: not significantly affected
mRNA level of BNP ([1]; vs 5% glucose control): suppressed the increases
ratio of lung weight to body weight ([1]; vs 5% glucose control): suppressed the increases
cardiomyocyte cross-sectional area (WGA staining) [2, 4]: suppressed the increase
heart weight [2, 4]: suppressed the increases
ratio of heart weight to body weight [2, 4]: suppressed the increases
interventricular septum diameter at end-diastole (IVSd) [2, 5]: suppressed both
left ventricular ejection fraction (LVEF) [2, 5]: did not significantly suppress the decrease
left ventricular mass [2, 5]: suppressed both
mRNA levels of cardiac hypertrophy markers (BNP and ANF) [2, 6]: suppressed the increases
mRNA levels of endoplasmic reticulum stress markers (Bip, CHOP, and VCP) [2, 6]: not significantly affected
cardiomyocyte cross-sectional area ([3]; TAC mice): suppressed it
fibrotic area in Masson's trichrome-stained heart ([3]; TAC mice): suppressed
heart weight ([3]; TAC mice, 8 weeks after TAC): suppressed the increase in heart weight
left ventricular systolic dysfunction (LVEF, echocardiography) ([3]; TAC mice, 8 weeks after TAC): suppressed the dysfunction
mRNA level of Col1a1 (cardiac fibrosis marker) ([3]; heart, qRT-PCR): suppressed
mRNA level of Postn (cardiac fibrosis marker) ([3]; heart, qRT-PCR): suppressed
mRNA level of VCP ([3]; heart, qRT-PCR): increased the mRNA level of VCP
mRNA levels of ANF, BNP, CHOP and Bip (other cardiac hypertrophy and endoplasmic reticulum stress markers) ([3]; heart, qRT-PCR): did not significantly affect the other mRNA levels
E/A (mouse models of HFpEF; [7]): improved
E/E′ (mouse models of HFpEF; [7]): improved
Global longitudinal strain (GLS) (mouse models of HFpEF; [7]): improved
EF (left ventricular ejection fraction) (mouse models of HFpEF; 50 mg/kg i.p., echocardiography before and 10 minutes after injection): increased
blood pressure (mouse models of HFpEF; before and after 50 mg/kg): lowered the blood pressure
exercise tolerance (distance traveled in treadmill test) (mouse models of HFpEF; before and after 50 mg/kg): improved the exercise tolerance
heart rate (mouse models of HFpEF; before and after 50 mg/kg): slightly lowered the heart rate
